According to the supplement of paper PMC4862054:

How the values were obtained:
Details in all cases: incubation time: 72 h
HDQ-P1 [1] = assay: normalised viability (% of control), CellTiter-Blue; higher = more viable cells (about 100 = DMSO control)
Method: (§1)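 DSRT, CellTiter-Blue viability, 72 h incubation. Signal is normalised to DMSO and benzethonium chloride controls. Value is the normalised response at dose 9.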

DU-4475 [2] = assay: as above
Method: as §1

MDA-MB-453 [3] = assay: as above
Method: as §1

CAL-148 [4] = assay: as above
Method: as §1

CAL-85-1 [5] = assay: as above
Method: as §1

CAL-51 [6] = assay: as above
Method: as §1

BT-549 [7] = assay: normalised viability (% of control), CellTiter-Blue; higher = more viable cells (100 = DMSO, 0 = benzethonium chloride kill control)
Method: (§2)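 DSRT, CellTiter-Blue viability, 72 h incubation. Signal is normalised to DMSO and benzethonium chloride controls. Value is the normalised response at dose 1.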

HCC1143 [8] = assay: as above
Method: as §2

MDA-MB-468 [9] = assay: as above
Method: as §2

Hs578T [10] = assay: as above
Method: as §2

BT-474 [11] = assay: as above
Method: as §2

HDQ-P1 [12] = assay: as above
Method: as §2

HCC1937 [13] = assay: as above
Method: as §2

MDA-MB-231 [14] = assay: as above
Method: as §2

CAL-120 [15] = assay: as above
Method: as §2

DU-4475 [16] = assay: as above
Method: as §2

SK-BR-3 [17] = assay: as above
Method: as §2

HCC1599 [18] = assay: as above
Method: as §2

MDA-MB-453 [19] = assay: as above
Method: as §2

CAL-148 [20] = assay: as above
Method: as §2

CAL-85-1 [21] = assay: as above
Method: as §2

MFM-223 [22] = assay: as above
Method: as §2

CAL-51 [23] = assay: as above
Method: as §2

MDA-MB-436 [24] = assay: as above
Method: as §2

BT-549 [25] = assay: normalised response (% of control), CellTiter-Glo; higher = more viable cells (100 = DMSO, 0 = benzethonium chloride kill control)
In short: (§3)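 Two readouts were taken after 72 h: CellTox Green fluorescence (485/520 nm) first, then CellTiter-Glo luminescence after 10 min at room temperature. Breast cancer cell lines had been seeded as 20 µl suspension into 384-well plates holding compound at 5 concentrations in 10-fold steps across a compound-specific 10,000-fold range. Each value is a normalised signal at a single concentration, with plates scaled to 0.1 % DMSO (100) and a positive kill control (0).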

HCC1143 [26] = assay: as above
In short: as §3

MDA-MB-468 [27] = assay: as above
In short: as §3

MCF-10A = assay: as above
In short: as §3

Hs578T [28] = assay: as above
In short: as §3

BT-474 [29] = assay: as above
In short: as §3

HDQ-P1 [30] = assay: as above
In short: as §3

HCC1937 [31] = assay: as above
In short: as §3

MDA-MB-231 [32] = assay: as above
In short: as §3

CAL-120 [33] = assay: as above
In short: as §3

DU-4475 [34] = assay: as above
In short: as §3

SK-BR-3 [35] = assay: as above
In short: as §3

HCC1599 [36] = assay: as above
In short: as §3

MDA-MB-453 [37] = assay: as above
In short: as §3

CAL-148 [38] = assay: as above
In short: as §3

CAL-85-1 [39] = assay: as above
In short: as §3

MFM-223 [40] = assay: as above
In short: as §3

CAL-51 [41] = assay: as above
In short: as §3

MDA-MB-436 [42] = assay: as above
In short: as §3

SMILES: COc1cc(Nc2ncc3c(n2)-c2ccc(Cl)cc2C(c2c(F)cccc2OC)=NC3)ccc1C(=O)O [MLN8237] (10000 nM)
- normalised viability (HDQ-P1 [1]): 40.9%
- normalised viability (DU-4475 [2]): 21.9%
- normalised viability (MDA-MB-453 [3]): 44.8%
- normalised viability (CAL-148 [4]): 26.2%
- normalised viability (CAL-85-1 [5]): 56.3%
- normalised viability (CAL-51 [6]): 18.8%

SMILES: C[C@]1(c2nc3c(C(N)=O)cccc3[nH]2)CCCN1 [Veliparib] (1 nM)
- normalised viability (BT-549 [7]): 112%
- normalised viability (HCC1143 [8]): 79.1%
- normalised viability (MDA-MB-468 [9]): 97.7%
- normalised viability (Hs578T [10]): 94.8%
- normalised viability (BT-474 [11]): 89.8%
- normalised viability (HDQ-P1 [12]): 75.1%
- normalised viability (HCC1937 [13]): 77.1%
- normalised viability (MDA-MB-231 [14]): 94.3%
- normalised viability (CAL-120 [15]): 68.6%
- normalised viability (DU-4475 [16]): 99%
- normalised viability (SK-BR-3 [17]): 96.9%
- normalised viability (HCC1599 [18]): 83.5%
- normalised viability (MDA-MB-453 [19]): 93.3%
- normalised viability (CAL-148 [20]): 101%
- normalised viability (CAL-85-1 [21]): 78.4%
- normalised viability (MFM-223 [22]): 94.1%
- normalised viability (CAL-51 [23]): 112%
- normalised viability (MDA-MB-436 [24]): 93.7%
- normalised response (BT-549 [25]): 104%
- normalised response (HCC1143 [26]): 101%
- normalised response (MDA-MB-468 [27]): 111%
- normalised response (MCF-10A): 97%
- normalised response (Hs578T [28]): 101%
- normalised response (BT-474 [29]): 107%
- normalised response (HDQ-P1 [30]): 101%
- normalised response (HCC1937 [31]): 96.8%
- normalised response (MDA-MB-231 [32]): 102%
- normalised response (CAL-120 [33]): 97.3%
- normalised response (DU-4475 [34]): 106%
- normalised response (SK-BR-3 [35]): 102%
- normalised response (HCC1599 [36]): 96.4%
- normalised response (MDA-MB-453 [37]): 109%
- normalised response (CAL-148 [38]): 103%
- normalised response (CAL-85-1 [39]): 111%
- normalised response (MFM-223 [40]): 101%
- normalised response (CAL-51 [41]): 92.2%
- normalised response (MDA-MB-436 [42]): 91.4%

SMILES: CN1CCC(COc2cnc(-c3cccc(Cn4nc(-c5cccc(C#N)c5)ccc4=O)c3)nc2)CC1 (10000 nM)
- normalised viability (HDQ-P1 [1]): 4.94%
- normalised viability (DU-4475 [2]): 2.2%
- normalised viability (MDA-MB-453 [3]): 3.23%
- normalised viability (CAL-148 [4]): 25.8%
- normalised viability (CAL-85-1 [5]): 6.29%
- normalised viability (CAL-51 [6]): 6.25%

SMILES: CN1CC[C@H](c2c(O)cc(O)c3c(=O)cc(-c4ccccc4Cl)oc23)[C@H](O)C1 [Alvocidib] (1 nM)
- normalised viability (BT-549 [7]): 104%
- normalised viability (HCC1143 [8]): 78.5%
- normalised viability (MDA-MB-468 [9]): 113%
- normalised viability (Hs578T [10]): 73.7%
- normalised viability (BT-474 [11]): 92.3%
- normalised viability (HDQ-P1 [12]): 79.7%
- normalised viability (HCC1937 [13]): 96.4%
- normalised viability (MDA-MB-231 [14]): 98.1%
- normalised viability (CAL-120 [15]): 75%
- normalised viability (DU-4475 [16]): 101%
- normalised viability (SK-BR-3 [17]): 97.4%
- normalised viability (HCC1599 [18]): 99.6%
- normalised viability (MDA-MB-453 [19]): 95.8%
- normalised viability (CAL-148 [20]): 104%
- normalised viability (CAL-85-1 [21]): 83.5%
- normalised viability (MFM-223 [22]): 88.3%
- normalised viability (CAL-51 [23]): 102%
- normalised viability (MDA-MB-436 [24]): 94.3%
- normalised response (BT-549 [25]): 106%
- normalised response (HCC1143 [26]): 96.5%
- normalised response (MDA-MB-468 [27]): 106%
- normalised response (MCF-10A): 95.2%
- normalised response (Hs578T [28]): 98.1%
- normalised response (BT-474 [29]): 92.2%
- normalised response (HDQ-P1 [30]): 94.9%
- normalised response (HCC1937 [31]): 103%
- normalised response (MDA-MB-231 [32]): 103%
- normalised response (CAL-120 [33]): 102%
- normalised response (DU-4475 [34]): 104%
- normalised response (SK-BR-3 [35]): 112%
- normalised response (HCC1599 [36]): 94.2%
- normalised response (MDA-MB-453 [37]): 115%
- normalised response (CAL-148 [38]): 104%
- normalised response (CAL-85-1 [39]): 110%
- normalised response (MFM-223 [40]): 98.2%
- normalised response (CAL-51 [41]): 80.2%
- normalised response (MDA-MB-436 [42]): 97.9%
